Assay: xn = mol fraction of the nth substance listed
Conditions: Constant-volume piezometry

CCCCC [pentane] + CCCO
Conditions	mass density [kg/m3]
543.15 K, 9051 kPa, Fluid (supercritical or subcritical phases), x1 = 0.2	378.24
543.15 K, 9246 kPa, Fluid (supercritical or subcritical phases), x1 = 0.8	288.09
543.15 K, 9255 kPa, Fluid (supercritical or subcritical phases), x1 = 0.2	383.04
543.15 K, 9409 kPa, Fluid (supercritical or subcritical phases), x1 = 0.9	301.38
543.15 K, 9589 kPa, Fluid (supercritical or subcritical phases), x1 = 0.2	390.87
543.15 K, 9630 kPa, Fluid (supercritical or subcritical phases), x1 = 0.8	298.89
543.15 K, 9923 kPa, Fluid (supercritical or subcritical phases), x1 = 0.9	312.01
543.15 K, 10354 kPa, Fluid (supercritical or subcritical phases), x1 = 0.8	315.05
543.15 K, 11098 kPa, Fluid (supercritical or subcritical phases), x1 = 0.9	333.7
543.15 K, 11177 kPa, Fluid (supercritical or subcritical phases), x1 = 0.2	418.27
543.15 K, 11295 kPa, Fluid (supercritical or subcritical phases), x1 = 0.8	333.52
543.15 K, 11953 kPa, Fluid (supercritical or subcritical phases), x1 = 0.8	345.03
543.15 K, 12737 kPa, Fluid (supercritical or subcritical phases), x1 = 0.9	353.77
543.15 K, 13394 kPa, Fluid (supercritical or subcritical phases), x1 = 0.8	361.57
543.15 K, 15943 kPa, Fluid (supercritical or subcritical phases), x1 = 0.2	469.86
543.15 K, 19097 kPa, Fluid (supercritical or subcritical phases), x1 = 0.9	406.88
543.15 K, 19983 kPa, Fluid (supercritical or subcritical phases), x1 = 0.8	417.78
543.15 K, 22804 kPa, Fluid (supercritical or subcritical phases), x1 = 0.2	509.01
543.15 K, 31784 kPa, Fluid (supercritical or subcritical phases), x1 = 0.8	466.21
543.15 K, 33595 kPa, Fluid (supercritical or subcritical phases), x1 = 0.2	546.39
543.15 K, 42744 kPa, Fluid (supercritical or subcritical phases), x1 = 0.8	495.57
543.15 K, 49093 kPa, Fluid (supercritical or subcritical phases), x1 = 0.2	580.61
553.15 K, 1401 kPa, Gas, x1 = 0.8	22.49
553.15 K, 1675 kPa, Gas, x1 = 0.2	24.89
553.15 K, 2144 kPa, Gas, x1 = 0.8	36.64
553.15 K, 3159 kPa, Gas, x1 = 0.8	58.33
553.15 K, 3511 kPa, Gas, x1 = 0.2	52.93
553.15 K, 3789 kPa, Gas, x1 = 0.8	73.69
553.15 K, 4048 kPa, Fluid (supercritical or subcritical phases), x1 = 0.9	83.26
553.15 K, 4680 kPa, Gas, x1 = 0.2	91.28
553.15 K, 4938 kPa, Fluid (supercritical or subcritical phases), x1 = 0.8	106.25
553.15 K, 5296 kPa, Fluid (supercritical or subcritical phases), x1 = 0.9	123.17
553.15 K, 5319 kPa, Fluid (supercritical or subcritical phases), x1 = 0.2	114.19
553.15 K, 5611 kPa, Fluid (supercritical or subcritical phases), x1 = 0.9	133.93
553.15 K, 6054 kPa, Fluid (supercritical or subcritical phases), x1 = 0.8	140.1
553.15 K, 6100 kPa, Fluid (supercritical or subcritical phases), x1 = 0.2	150.13
553.15 K, 6344 kPa, Fluid (supercritical or subcritical phases), x1 = 0.9	163.72
553.15 K, 6388 kPa, Fluid (supercritical or subcritical phases), x1 = 0.8	155.82
553.15 K, 6521 kPa, Fluid (supercritical or subcritical phases), x1 = 0.2	175.35
553.15 K, 6714 kPa, Fluid (supercritical or subcritical phases), x1 = 0.2	189.36
553.15 K, 6741 kPa, Fluid (supercritical or subcritical phases), x1 = 0.8	169.54
553.15 K, 6874 kPa, Fluid (supercritical or subcritical phases), x1 = 0.8	175.77
553.15 K, 6982 kPa, Fluid (supercritical or subcritical phases), x1 = 0.9	189.18
553.15 K, 6985 kPa, Fluid (supercritical or subcritical phases), x1 = 0.8	180.56
553.15 K, 7102 kPa, Fluid (supercritical or subcritical phases), x1 = 0.2	219.77
553.15 K, 7277 kPa, Fluid (supercritical or subcritical phases), x1 = 0.9	202.08
553.15 K, 7296 kPa, Fluid (supercritical or subcritical phases), x1 = 0.8	192.88
553.15 K, 7439 kPa, Fluid (supercritical or subcritical phases), x1 = 0.2	245.11
553.15 K, 7620 kPa, Fluid (supercritical or subcritical phases), x1 = 0.2	258.81
553.15 K, 7669 kPa, Fluid (supercritical or subcritical phases), x1 = 0.2	262.51
553.15 K, 7760 kPa, Fluid (supercritical or subcritical phases), x1 = 0.9	220.36
553.15 K, 7786 kPa, Fluid (supercritical or subcritical phases), x1 = 0.8	213.54
553.15 K, 7792 kPa, Fluid (supercritical or subcritical phases), x1 = 0.2	271.95
553.15 K, 7945 kPa, Fluid (supercritical or subcritical phases), x1 = 0.8	219.29
553.15 K, 8057 kPa, Fluid (supercritical or subcritical phases), x1 = 0.2	290.1
553.15 K, 8082 kPa, Fluid (supercritical or subcritical phases), x1 = 0.9	232.72
553.15 K, 8169 kPa, Fluid (supercritical or subcritical phases), x1 = 0.9	236.18
553.15 K, 8267 kPa, Fluid (supercritical or subcritical phases), x1 = 0.9	240.57
553.15 K, 8315 kPa, Fluid (supercritical or subcritical phases), x1 = 0.8	234.36
553.15 K, 8323 kPa, Fluid (supercritical or subcritical phases), x1 = 0.2	306.36
553.15 K, 8361 kPa, Fluid (supercritical or subcritical phases), x1 = 0.9	243.88
553.15 K, 8384 kPa, Fluid (supercritical or subcritical phases), x1 = 0.2	310.58
553.15 K, 8538 kPa, Fluid (supercritical or subcritical phases), x1 = 0.2	318.29
553.15 K, 8586 kPa, Fluid (supercritical or subcritical phases), x1 = 0.8	244.98
553.15 K, 8982 kPa, Fluid (supercritical or subcritical phases), x1 = 0.8	258.18
553.15 K, 9164 kPa, Fluid (supercritical or subcritical phases), x1 = 0.2	340.74
553.15 K, 9236 kPa, Fluid (supercritical or subcritical phases), x1 = 0.2	343.52
553.15 K, 9433 kPa, Fluid (supercritical or subcritical phases), x1 = 0.8	272.13
553.15 K, 9589 kPa, Fluid (supercritical or subcritical phases), x1 = 0.9	281.59
553.15 K, 10042 kPa, Fluid (supercritical or subcritical phases), x1 = 0.8	287.95
553.15 K, 10274 kPa, Fluid (supercritical or subcritical phases), x1 = 0.9	301.23
553.15 K, 10469 kPa, Fluid (supercritical or subcritical phases), x1 = 0.8	298.75
553.15 K, 10491 kPa, Fluid (supercritical or subcritical phases), x1 = 0.2	378.05
553.15 K, 10735 kPa, Fluid (supercritical or subcritical phases), x1 = 0.2	382.84
